According to patent US20070258970A1, “Methods for Inhibiting Hiv and Other Viral Infections by Modulating Ceramide Metabolism” (priority 2003, published 2007):

Experiments:
ceramide [1] = assay: Ceramide level in monocyte derived macrophages; conditions: 5 uM
VSV pseudotyped HIV-1 = assay type: cell-based
HIV-1 [2] = assay type: cell-based
CD4 = assay: Flow cytometry of cell surface CD4 on TMZ cells; assay type: cell-based
Description: (§1) TMZ cells, harvested with trypsin-EDTA in PBS, were centrifuged at 450×g and resuspended at 10^6 cells/ml in PBS-5% FBS-5% normal mouse serum. After incubation for 15 min at room temperature, the cells were washed twice in PBS-0.1% bovine serum albumin and resuspended in 100 μl of PBS-5% FBS-5% normal mouse serum. 20 μl of Phycoerythrin (PE)-conjugated mouse immunoglobulin G (IgG) anti-CD4, PE-conjugated mouse IgG anti-CXCR4, or PE-conjugated mouse IgG anti-CCR5, from Becton Dickenson (San Jose, Calif.) was then added to each sample. Cells were incubated at 4° C. for 1 hour and washed twice in PBS-0.1% BSA. Samples were fixed in PBS-1% paraformaldehyde and resuspended in 1 ml of PBS to be read by a FACScalibur instrument (Becton Dickinson, San Jose, Calif.) at 10,000 events/sample with respect to unlabeled cells.
(§2) Increasing ceramide concentrations is thought to perturb membrane properties due to the hydrophobic nature of this lipid and the tendency to self aggregate. The possible consequences of membrane altering properties on the cell surface expression of the main HIV receptors, CD4, X4 and R5, was investigated. […] CD4 expression decreases in a dose dependent manner from a control level of 100% to levels of 70%, 57% and 27% following treatment with 2, 5 and 10 μM of a 4-HPR compound respectively.

CCR5 = assay: Flow cytometry of cell surface CCR5 on TMZ cells; assay type: cell-based
Description: as §1, §2

cells = assay: Apoptotic effects on the cells by annexin 5 staining / toxicity; assay type: cell-based; conditions: at the low concentrations that inhibit HIV-1
HIV-1 [3] = assay: HIV-1 infection of primary monocyte derived macrophages; assay type: cell-based; conditions: low uM concentrations, pretreated 2 days
CXCR4 = assay: Flow cytometry of cell surface CXCR4 on TMZ cells; assay type: cell-based; conditions: 2 μM
Description: as §1, §2

ceramide [4] = assay: Ceramide quantitation by [3H]sphingosine incorporation in HeLa-derived target cells; assay type: cell-based
HIV-1 gp160 (HXB2) = assay: Cell-cell fusion assay (HeLa cells expressing HIV-1 gp160 with TMZ target cells, luciferase); conditions: pretreated target cells, alone or combined; FIG. 8B
Description: Target TMZ cells were plated at 0.75×10^4 cells per well in a 96 well plate and treated with a 4-BPR compound for 48 hours with 5% CO2 in a humidified incubator. HeLa cells expressing HUV-1 gp160 (HXB2) in addition to gag, tat, rev and nef were then cocultured with target cells containing the tat inducible luciferase reporter cassette. Envelope and target cells were cocultivated at 37° C. for 7 hours. Luciferase activity was then measured using a Promega (Madison, Wis.) luciferase assay system kit. Briefly, the supernatants were removed and the cells were lysed with Steady Glo luciferase assay system. The light intensity of each well was measured on a Reporter luminometer. Mock-infected cells were used to determine background luminescence. All infectivity assays were performed in duplicate.
Briefly, HeLa cells expressing HIV-1 gp160 (HXB2) in addition to gag, tat, rev and nef were cocultured with CD4 positive target cells containing the tat inducible luciferase reporter cassette. […] Envelope and target cells were cocultivated at 37° C. for 7 hours following which the cells were lysed and luciferase activity quantitated.

Sendai virus = assay: R18 fluorescence dequenching viral fusion assay; conditions: increasing concentrations, 37° C., pH7; FIG. 9
Description: To further probe how ceramide accumulation might inhibit viral fusion, viral fusion was monitored using a well-established octadecyl rhodamine (R18) fluorescence dequenching (R18-fdq) assay. In this assay system R18-labeled Sendai virus was incubated with control or a 4-HPR compound treated cells for 30 min at 4° C. to allow for virus binding. Small aliquots of virus-cell complexes were added to a stirred cuvette at 37° C. containing 2 ml buffer at pH7. Fluorescence increases were recorded with a 1 sec time resolution in a SLM8000 spectrofluorimeter (SLMInstruments, Urbana, Ill.). […] This increase in fluorescence reflects dequenching of R18 upon the merging of viral and cell membranes.

## CC1=C(/C=C/C(C)=C/C=C/C(C)=C/C(=O)Nc2ccc(O)cc2)C(C)(C)CCC1 [4-HPR compound, N-(4-hydroxyphenyl)retinamide]
Ceramide [1]
  increase in ceramide: 1.12 fold
VSV pseudotyped HIV-1
  infectivity of VSV pseudotyped HIV-1: not impaired
HIV-1 [2]; X4 (NL4-3, MN), R5 (Bal, JRCSF) and primary isolates, FIG. 3b
  inhibition of HIV-1 isolates: dose-dependent inhibition
CD4; 2 μM
  CD4 expression (control level 100%): 70%
CD4; 5 μM
  CD4 expression (control level 100%): 57%
CD4; 10 μM
  CD4 expression (control level 100%): 27%
CCR5; 2 μM
  CCR5 expression: 60%
CCR5; 5 μM
  CCR5 expression: 30%
CCR5; 10 μM
  CCR5 expression: 7%
cells
  toxicity: minimal toxicity
HIV-1 [3]; FIG. 6A
  HIV-1 infection of macrophages, CCR5 tropic isolate (BaL): Infection inhibition was observed
HIV-1 [3]; FIG. 6B
  HIV-1 infection of macrophages, primary isolate: Infection inhibition was observed
CXCR4
  CXCR4 expression: 18%
Ceramide [4]; HeLa cells, 5 uM
  increase in ceramide: 1.7 fold
HIV-1 gp160 (HXB2)
  inhibition of fusion: 20%
Sendai virus
  inhibition of Sendai virus fusion (R18 fluorescence dequenching): dose dependent inhibition

## CCCCCCCCCCCCC/C=C/[C@@H](O)[C@H](CO)NC(=O)CCCCCCCCCCCCCCC [C16, C16 ceramide]
HIV-1 [2]; pretreatment with 1 μM lipid for 10 minutes at 37° C., FIG. 5
  inhibition of HIV infection: approximately 60%

## CCCCCCCCCCCCCCCC(=O)NC(CN1CCOCC1)C(O)c1ccccc1 (centres unmarked) [PPMP, 1-phenyl-2-hexadecanoylamino-3-morpholino-1-propanol]
HIV-1 gp160 (HXB2)
  inhibition of fusion: ineffective

## sphingomyelinase
HIV-1 [2]
  inhibition of HIV-1 infection: 60-70%
Ceramide [4]; sphingomyelinase pretreated cells
  ceramide levels following enzymatic activity: increased
